Test results from patent publication US20250188043A1 (ReproNovo SA, priority 2023, published 2025).
In brackets after ≈: the same amount, converted by molar mass.

Legend:
Assay type in all cases: physicochemical
[1] = Long term storage stability of crystalline Form A leflutrozole
Method: The test for determination of the amount of related substance impurities uses reverse phase HPLC analysis with UV detection (230 nm). The solvents are acetonitrile/water/diammonium hydrogen phosphate buffer/O-phosphirc acid 85%. The column is Macherey Nagel, Nucleosil 100 C18HD (length=150 mm, internal diameter 3.0 mm) or equivalent L1 USP HPLC Columns.
Stability data under accelerated conditions are for up to 6 months at 40° C./75% RH and up to 3 months at 50° C. […].
Packaging A: Double low density polyethylene bags in fiber drugms; water permeation <14.0 mg/day/L. Packaging D: Brown glass bottles type C sealed in triple laminated foil bags or quadruple laminated foil bags of type B; water permeation <0.5 mg/day/L. Packaging H: Double polythene bags, sealed, in 400 mL mini-metallic drugs; water permeation 5 mg/day/L. Packaging J: HDPE bottles from Nalgene (30 mL) with polypropylene screw caps and sealed in alubags of type B. Packaging K: Polyethylene bag containing the drug inside quadruple laminated foil bags; water permeation <0.5 mg/day/L.

[2] = Dynamic vapor sorption (DVS)
Method: Crystalline Form A leflutrozole was determined to be non-hygroscopic.

[3] = Stability program: degradation product formation and appearance; settings: for DSC onset after stress / DSC ΔH after stress: Bulk (DSC)
Source text: The mixtures of excipients used for this study are as follows: mixture 1 (maltodextrin, microcrystalline cellulose, sodium carboxymethylcellulose, Aerosil 200, Cutina HR; 64:29:5:0.5:1.5 ratio), mixture 2 (microcrystalline cellulose, spray dried lactose, sodium carboxylmethyl starch, Aerosil 200, magnesium stearate; 20:73.5:5:0.5:1 ratio), and mixture 3 (microcrystalline cellulose, mannitol, crospovidone, magnesium stearate; 15:79.5:4:1.5 ratio). The buffered solutions are aqueous.

Kinetic solubility = settings: aqueous buffer, kinetic from dmso stock; room temperature, aqueous solutions between pH 1.0 and pH 6.8
[4] = Chemical stability stress test: bulk solid and suspensions in buffer; settings: for Leflutrozole Peak Area, After: 1 week; for degradation: all suspensions tested
Method: The stress test conditions were bulk crystalline solid at room temperature (RT, about 25° C.) and 80° C. for one week or storage in buffer solutions of different pH (1, 4, and 7.4) at RT or at 80° C. for one week. Additional experiments were performed at 50° C. if degradation by more than 5% was observed during the analogous 80° C. experiment.

[5] = 36 months, 25° C., double polyethylene liner and black polyethylene keg
[6] = more than 36 months at room temperature
[7] = 2% (or 5%) solution or suspension, 1 day, room temperature, HPMC Cellulose 4000 0.5%
[8] = Solid-state, 1 week, 50° C., 75% RH, 1% in mixture 1
[9] = Solid-state, 1 week, 50° C., 75% RH, 1% in mixture 2
[10] = Solid-state, 1 week, 50° C., 75% RH, 1% in mixture 3
[11] = Solid-state, 1 week, 50° C., tight container, 1% in mixture 1
[12] = Solid-state, 1 week, 50° C., tight container, 1% in mixture 2
[13] = Solid-state, 1 week, 50° C., tight container, 1% in mixture 3
[14] = Solid-state, 1 week, 80° C., 75% RH
[15] = Solid-state, 1 week, 80° C., 75% RH, Bulk (HPLC)
[16] = Solid-state, 1 week, 80° C., tight container
[17] = Solid-state, 1 week, 80° C., tight container, Bulk (HPLC)
[18] = Xenon light (approx. 1200 kLuxh)
[19] = Xenon light (approx. 1200 kLuxh), Bulk (HPLC)

N#Cc1ccc(C(F)(c2ccc(C#N)cc2)n2cncn2)cc1 [Form A leflutrozole, 4-[(4-cyanophenyl)-fluoro-(1,2,4-triazol-1-yl)methyl]benzonitrile]
Combined related substance impurities ([1]; 5° C. ± 3° C. in packaging D, Initial): 0.60% | Combined related substance impurities ([1]; 25° C./60% RH in packaging K, 3 months): 0.60% | Combined related substance impurities ([1]; 25° C./60% RH in packaging K, Initial): 0.60% | impurity Q2 (substance of unknown structure) [1, 5]: 0.11 % w/w | impurity compound of formula (III) [1, 5]: 0.14 % w/w | Combined related substance impurities ([1]; 40° C./75% RH in packaging A, 3 months): 0.60% | Combined related substance impurities ([1]; 40° C./75% RH in packaging A, Initial): 0.60% | Combined related substance impurities ([1]; 40° C./75% RH in packaging D, Initial): 0.60% | Combined related substance impurities ([1]; 40° C./75% RH in packaging K, 6 months): 0.60% | Combined related substance impurities ([1]; 40° C./75% RH in packaging K, Initial): 0.60% | Combined related substance impurities ([1]; 50° C./≤30% RH in packaging D, Initial): 0.60% | Combined related substance impurities ([1]; 50° C./≤30% RH in packaging K, Initial): 0.60% | stability of drug substance on storage (in words) ([1]; long term and accelerated storage conditions): very stable under all storage conditions | individual impurity developed [1, 6]: ≤ 0.8 % HPLC peak area | total amount of impurities [1, 6]: ≤ 2.0 % of the total HPLC peak area | time stable at room temperature ([1]; room temperature): more than 36 months | Combined related substance impurities ([1]; −20° C. ± 5° C./ambient RH in packaging D, Initial): 0.60% | Combined related substance impurities ([1]; −20° C. ± 5° C./ambient RH in packaging K, Initial): 0.60% | hygroscopicity [2]: non-hygroscopic | maximum water uptake (DVS) ([2]; 25° C., up to 95% relative humidity): < 0.2% | CL (appearance, color) ([3]; 0.1% solution or suspension, 1 week, 80° C., Ethanol): No change | CL (appearance, color) ([3]; 0.1% solution or suspension, 1 week, 80° C., Methanol): No change | CL (appearance, color) ([3]; 0.1% solution or suspension, 1 week, 80° C., Water): No change, suspension formed | CL (appearance, color) ([3]; 0.1% solution or suspension, 1 week, 80° C., pH 1): No change, suspension formed | CL (appearance, color) ([3]; 0.1% solution or suspension, 1 week, 80° C., pH 3): No change, suspension formed | form change on storage ([3]; 1 week at 80° C. and 75% relative humidity): no detectable form change | CL (appearance, color) ([3]; 2% (or 5%) solution or suspension, 1 day, room temperature, 0.5% CMC): suspension formed | CL (appearance, color) [3, 7]: suspension formed | DP (degradation product) [3, 7]: 0.0% | CL (appearance, color) [3, 8]: No change | DP (degradation product) [3, 8]: 0.5% | CL (appearance, color) [3, 9]: No change | DP (degradation product) [3, 9]: 0.1% | CL (appearance, color) [3, 10]: No change | DP (degradation product) [3, 10]: 0.4% | CL (appearance, color) [3, 11]: No change | DP (degradation product) [3, 11]: 0.0% | CL (appearance, color) [3, 12]: No change | DP (degradation product) [3, 12]: 0.0% | CL (appearance, color) [3, 13]: No change | DP (degradation product) [3, 13]: 0.1% | DSC onset after stress [3, 14]: 168 °C onset; | DSC ΔH after stress [3, 14]: ΔH = 110.3 J/g | CL (appearance, color) [3, 15]: No change | DP (degradation product) [3, 15]: 0.0% | DSC onset after stress [3, 16]: 168 °C onset; | DSC ΔH after stress [3, 16]: ΔH = 114 J/g | CL (appearance, color) [3, 17]: No change | DP (degradation product) [3, 17]: 0.0% | DSC onset after stress [3, 18]: 169 °C onset; | DSC ΔH after stress [3, 18]: ΔH = 112.6 J/g | CL (appearance, color) [3, 19]: No change | DP (degradation product) [3, 19]: 0.0% | degradation on exposure to xenon lamp (in words) ([3]; xenon lamp): does not degrade | solubility kinetic (Kinetic solubility): ~0.0607 µg/mL (≈ 0.2 µM) | Leflutrozole Peak Area, After ([4]; Bulk Solid, RT): 99.6% peak area | Leflutrozole Peak Area, After ([4]; Bulk solid, 80° C., listed as Form A of leflutrozole): 99.7 % peak area | Leflutrozole Peak Area, After ([4]; Bulk solid, 80° C., listed as crystalline Form A leflutrozole): 99.7% peak area | Leflutrozole Peak Area, After ([4]; Suspension in buffer, pH 1, 50° C.): 79.8% peak area | Leflutrozole Peak Area, After ([4]; Suspension in buffer, pH 1, 80° C.): 18.5% peak area | Leflutrozole Peak Area, After ([4]; Suspension in buffer, pH 4, 50° C.): 94.3% peak area | Leflutrozole Peak Area, After ([4]; Suspension in buffer, pH 4, 80° C.): 0.6% peak area | Leflutrozole Peak Area, After ([4]; Suspension in buffer, pH 7.4, 50° C.): 95.5% peak area | Leflutrozole Peak Area, After ([4]; Suspension in buffer, pH 7.4, 80° C.): 1.1% peak area | degradation ([4]; 1 week at 50° C.): > 4% | degradation ([4]; 80° C. for 1 week, irrespective of buffer pH): > 80% | Leflutrozole Peak Area, Before ([4]; before stress test): 99.7% peak area | major decomposition product ([4]; sample stored at pH 7.4 and 80° C., LC-MS): compound of Formula (IV)
